Where two headings read alike, the source gives them in different places.
Legend:
[1] = logP by HPLC on reversed-phase columns (C 18), EEC Directive 79/831 Annex V.A8; type: physicochemical; details: reversed-phase C18 HPLC column
Experimental: Calibration is carried out using unbranched alkan-2-ones (having from 3 to 16 carbon atoms) with known log P values (the log P values are determined by the retention times using linear interpolation between two successive alkanones).

[2] = tested on: greenhouse red spider mite (Tetranychus urticae); assay: Tetranychus urticae spray test, OP-resistant (TETRUR), bean leaf disks; type: in vivo; details: Tetranychus urticae, foliar, 144 h, read-out: efficacy (spider mites killed)
Experimental: After 6 days, the effect in % is determined.

[3] = tested on: larvae of the mustard beetle (Phaedon cochleariae); assay: Phaedon cochleariae spray test (PHAECO); details: Phaedon cochleariae, 168 h, read-out: effect (beetle larvae killed)
[4] = tested on: cattle ticks (Boophilus microplus); assay: Boophilus microplus injection test (BOOPMI Inj); type: in vivo; details: Rhipicephalus microplus, 168 h; application rate 20 μg/animal, injection, after 7 days; read-out: efficacy (laying of fertile eggs)
Experimental: Solvent: dimethyl sulfoxide
1 μl of the active compound solution is injected into the abdomen of 5 engorged adult female cattle ticks (Boophilus microplus). The animals are transferred into dishes and kept in a climate-controlled room.
The activity is assessed after 7 days by laying of fertile eggs. Eggs whose fertility is not visible from the outside are stored in a climate-controlled cabinet until the larvae hatch after about 42 days. An efficacy of 100% means that none of the ticks has laid any fertile eggs; 0% means that all eggs are fertile.

[5] = pH 2.7, [a] LC-MS, acidic range, pH 2.7, 0.1% aqueous formic acid/acetonitrile, read-out: logP(HCOOH)
[6] = pH 7.8, [b] LC-MS, neutral range, pH 7.8, 0.001 molar aqueous ammonium bicarbonate/acetonitrile, read-out: logP(neutral)
[7] = application rate 500 g/ha, after 6 days

Compound `Cc1cc(F)c(/N=C(/Nc2ccc(Cl)cc2)C(F)(F)F)cc1SCC(F)(F)F` [Ia-31] has a chromatographic logP [1, 5] of 4.73, a chromatographic logP [1, 6] of 4.67 and a pest or weed control at 500 g/ha [2, 7] of 100%. It also gave a pest or weed control at 500 g/ha [3] of 100%.
With `Cc1cc(F)c(/N=C2\CCCN2C)cc1SCC(F)(F)F` [Ia-39] the pest or weed control at 0.02 mg [4] was 100% and the pest or weed control at 500 g/ha [2, 7] was 100%.
`CN/C(=N\c1cc(SCC(F)(F)F)c(C)cc1F)c1cccc(Cl)c1` [Ia-44] showed a pest or weed control at 0.02 mg [4] of 100% and a pest or weed control at 500 g/ha [2, 7] of 100%.
`Cc1cc(F)c(/N=C(/Nc2ccc(C(F)(F)F)cc2)C(F)(F)F)cc1SCC(F)(F)F` [Ia-45] showed a chromatographic logP [1, 5] of 4.82, a chromatographic logP [1, 6] of 4.71 and a pest or weed control at 500 g/ha [2, 7] of 80%. The pest or weed control at 500 g/ha [3] was 100%.
`Cc1cc(F)c(/N=C(/c2ccc(Cl)cc2)N(C)C)cc1SCC(F)(F)F` [Ia-50] showed a pest or weed control at 0.02 mg [4] of 100% and a pest or weed control at 500 g/ha [2, 7] of 100%.
Compound `Cc1cc(C)c(SCC(F)(F)F)cc1/N=C(\N)c1cccnc1` [Ia-66] has a pest or weed control at 0.02 mg [4] of 100% and a pest or weed control at 500 g/ha [2, 7] of 100%.
`CN/C(=N\c1cc(SCC(F)(F)F)c(C)cc1F)c1ccncc1` [Ia-80] gave a pest or weed control at 0.02 mg [4] of 100% and a pest or weed control at 500 g/ha [2, 7] of 100%.
In the case of `Cc1cc(F)c(/N=C(\N)C2CC2)cc1SCC(F)(F)F` [Ia-92], the pest or weed control at 500 g/ha [2, 7] was 90% and the pest or weed control at 500 g/ha [3] was 83%.
Work on `Cc1cc(F)c(/N=C(\N)C(F)(F)Cl)cc1SCC(F)(F)F` [Ia-115] yielded a pest or weed control at 0.02 mg [4] of 100%, a pest or weed control at 500 g/ha [2, 7] of 100% and a pest or weed control at 500 g/ha [3] of 100%.
For `Cc1cc(F)c(/N=C(\N)C2(C#N)CC2)cc1SCC(F)(F)F` [Ia-118], the pest or weed control at 0.02 mg [4] was 100%, the pest or weed control at 500 g/ha [2, 7] was 90% and the pest or weed control at 500 g/ha [3] was 100%.
With `Cc1cc(F)c(/N=C(\c2cccc(F)c2)N(C)C)cc1SCC(F)(F)F` [Ia-120] the pest or weed control at 0.02 mg [4] was 100% and the pest or weed control at 500 g/ha [2, 7] was 100%.
In the case of `N/C(=N/c1cc(SCC(F)(F)F)c(Br)cc1Cl)C(F)(F)F` [Ia-121], the pest or weed control at 500 g/ha [2, 7] was 100% and the pest or weed control at 500 g/ha [3] was 100%.
Work on `N/C(=N\c1cc(SCC(F)(F)F)c(Cl)cc1Cl)c1ccncn1` [Ia-130] yielded a pest or weed control at 500 g/ha [2, 7] of 100% and a pest or weed control at 500 g/ha [3] of 83%.
With `N/C(=N\c1cc(SCC(F)(F)F)c(Cl)cc1Cl)c1ccccn1` [Ia-134] the pest or weed control at 500 g/ha [2, 7] was 100% and the pest or weed control at 500 g/ha [3] was 83%.
In the case of `N/C(=N\c1cc(SCC(F)(F)F)c(Cl)cc1Cl)c1ccc(Cl)nc1` [Ia-135], the pest or weed control at 500 g/ha [2, 7] was 100% and the pest or weed control at 500 g/ha [3] was 100%.
In the case of `N/C(=N\c1cc(SCC(F)(F)F)c(Cl)cc1Cl)C1CC1` [Ia-139], the pest or weed control at 500 g/ha [2, 7] was 100% and the pest or weed control at 500 g/ha [3] was 100%.
`Cc1cc(F)c(/N=C(\c2ccc(Cl)s2)N(C)C)cc1SCC(F)(F)F` [Ia-149, 5-Chloro-N′-{2-fluoro-4-methyl-5-[(2,2,2-trifluoroethyl)sulfanyl]phenyl}-N,N-dimethylthiophene-2-carboximidamide] gave a chromatographic logP [1, 5] of 2.11, a chromatographic logP [1, 6] of 4.89 and a pest or weed control at 500 g/ha [2, 7] of 90%. For the same compound, the pest or weed control at 500 g/ha [3] was 100%.
Compound `Cc1cc(F)c(/N=C(\c2cccn2C)N(C)C)cc1SCC(F)(F)F` [Ia-162, N′-{2-Fluoro-4-methyl-5-[(2,2,2-trifluoroethyl)sulfanyl]phenyl}-N,N,1-trimethyl-1H-pyrrole-2-carboximidamide] has a chromatographic logP [1, 5] of 1.67, a chromatographic logP [1, 6] of 4.11 and a pest or weed control at 500 g/ha [2, 7] of 100%. The pest or weed control at 500 g/ha [3] was 100%.
Work on `Cc1cc(F)c(/N=C(/NCc2ccccc2)C(F)(F)F)cc1SCC(F)(F)F` [Ia-171] yielded a pest or weed control at 500 g/ha [2, 7] of 90% and a pest or weed control at 500 g/ha [3] of 83%.
`Cc1cc(F)c(/N=C2\CCCN2c2ccc(C(F)(F)F)cc2)cc1SCC(F)(F)F` [Ia-191] showed a pest or weed control at 500 g/ha [2, 7] of 100% and a pest or weed control at 500 g/ha [3] of 100%.
`CN(C)/C(CC(F)(F)F)=N\c1cc(SCC(F)(F)F)c(Cl)cc1Cl` [Ia-202] gave a pest or weed control at 500 g/ha [2, 7] of 100% and a pest or weed control at 500 g/ha [3] of 100%.
`N/C(=N/c1ccc(Cl)c(SCC(F)(F)F)c1)C(F)(F)F` [Ia-204, N′-{4-Chloro-3-[(2,2,2-trifluoroethyl)sulfanyl]phenyl}-2,2,2-trifluoroethanimidamide] gave a chromatographic logP [1, 5] of 3.1, a chromatographic logP [1, 6] of 3.1 and a pest or weed control at 500 g/ha [2, 7] of 90%. For the same compound, the pest or weed control at 500 g/ha [3] was 83%.
Work on `CN(C)/C(=N\c1cc(SCC(F)(F)F)c(Cl)cc1Cl)c1ccccc1Cl` [Ia-207] yielded a pest or weed control at 500 g/ha [2, 7] of 100% and a pest or weed control at 500 g/ha [3] of 83%.
`N/C(=N\c1cc(SCC(F)(F)F)c(Cl)cc1Cl)C1CCC1` [Ia-209] gave a pest or weed control at 500 g/ha [2, 7] of 100% and a pest or weed control at 500 g/ha [3] of 100%.
For `N/C(=N\c1cc(SCC(F)(F)F)c(Cl)cc1Cl)C(Cl)(Cl)Cl` [Ia-210], the pest or weed control at 500 g/ha [2] was 100% and the pest or weed control at 500 g/ha [3] was 83%.
